Experimental data reported in patent publication US20210315840A1, “SOLID ORAL DOSAGE FORMS OF KETAMINE DERIVATIVES” (priority 2017, published 2021).
Entries after “also recorded” stand apart in the source; their conditions may differ. Like-named read-outs stand apart in the source and are kept apart here.

Tests used:
mouse = experiment: Progressive ratio test in the mouse
[1] = 300 mg/kg IP daily for 4 days, listed as 2R,6R-HNK
[2] = 300 mg/kg, replication after 3-week wash-out, listed as 2R,6R-HNK
[3] = dose matched to 300 mg/kg 2R,6R-HNK

Structure (SMILES): N[C@@]1(c2ccccc2Cl)CCC[C@@H](O)C1=O [2R,6R-hydroxynorketamine L-pyroglutamate]
- average responses per minute, higher compared with vehicle (mouse; 300 mg/kg IP): 29%
- number of target touches compared to ketamine and vehicle groups (mouse; 300 mg/kg IP daily for 4 days): significant increase
- breakpoint compared to vehicle and ketamine (mouse; 300 mg/kg IP daily for 4 days, tested 20 minutes after injection): significant increase
- % of correct touches (mouse; [1]): significant increase; also recorded: significantly increased
- ratio of target touches to blank touches (mouse; [1]): significant increase; also recorded: significantly increased
- rate of responding (running rate) compared to ketamine and vehicle groups (mouse; 300 mg/kg IP, 60 minute test session): higher rate of responding
- predicted peak responding (running rate coefficient) (mouse; 300 mg/kg IP, p=0.12): trend toward a main effect of drug
- average responses per minute, higher compared with ketamine (mouse; 300 mg/kg IP, ketamine 10 mg/kg): 59%
- breakpoint compared to vehicle and ketamine (mouse; 300 mg/kg, replication after 3-week wash-out): significant increase
- % of correct touches (mouse; [2]): significant increase; also recorded: increased
- number of target touches (mouse; [2]): significant increase; also recorded: increased
- ratio of target touches to blank touches (mouse; [2]): significant increase; also recorded: increased
- cognitive measures (mouse; doses below 30 mg/kg): No increase

Structure (SMILES): O=C1CC[C@@H](C(=O)[O-])N1.[Na+] [NaPg, sodium L-pyroglutamate, reference compound]
- any measure examined (mouse; [3]): did not significantly affect
- breakpoint compared to vehicle controls (mouse; [3]): did not increase

Structure (SMILES): CC(C)NCC(O)COc1cccc2ccccc12 (stereo not shown) [Propranolol, reference compound]
- Papp Replicate 1 (Caco-2; Direction = A2B): 26.0 10^−6 cms^−1
- Papp Replicate 2 (Caco-2; Direction = A2B): 27.4 10^−6 cms^−1
- Papp Replicate 1 (Caco-2; Direction = B2A): 27.0 10^−6 cms^−1
- Papp Replicate 2 (Caco-2; Direction = B2A): 26.2 10^−6 cms^−1
